In patent US20220053762A1, “HERBICIDAL COMPOSITIONS” (Bayer Aktiengesellschaft, priority 2018, published 2022):

Test system: harmful plant species
Assay: Specific trial examples: binary compositions applied by the post-emergence method, synergistic effect according to Colby (Tables 3.1-3.2)
Format: in vivo
Method: When the observed efficacies already exceed the formal sum total of the values of the tests with individual applications, they also exceed the expected value according to Colby, which is calculated using the formula below and is likewise regarded as an indication of synergism (cf. S. R. Colby; in Weeds 15 (1967) p. 20 to 22):
Seeds or rhizome pieces of mono- and dicotyledonous weeds are placed in sandy loam in pots, covered with soil and grown in a greenhouse under good growth conditions (temperature, air humidity, water supply). Three weeks after sowing, the test plants are treated at the three-leaf stage with the compositions according to the invention. The compositions according to the invention formulated as spray powders or as emulsion concentrates are sprayed onto the green plant parts in various dosages with an application rate of 300 to 800 l/ha of water (equivalent).
The sum total of the effects of the individual applications is reported under E^A; Expected values according to Colby are each reported under E^C.
The rating period is reported in days after application (DAT).

## O=C(O)CNCP(=O)(O)O [(B7.5) Glyphosate]
15 g a.i./ha
  Herbicidal action 28 DAT against Digitaria sanguinalis: 10%
50 g a.i./ha
  Herbicidal action 14 DAT against Alopecurus myosuroides: 30%
  Herbicidal action 14 DAT against Centaurea cyanus: 50%
  Herbicidal action 14 DAT against Lamium purpureum L.: 50%
  Herbicidal action 14 DAT against Lolium rigidum: 10%
  Herbicidal action 14 DAT against Lolium rigidum (resistant biotype): 10%
  Herbicidal action 14 DAT against Matricaria inodora: 40%
  Herbicidal action 14 DAT against Poa annua L.: 20%
  Herbicidal action 14 DAT against Viola tricolor: 50%
  Herbicidal action 28 DAT against Alopecurus myosuroides: 20%
  Herbicidal action 28 DAT against Alopecurus myosuroides (sensitive biotype): 0%
  Herbicidal action 28 DAT against Amaranthus palmeri (res.): 10%
  Herbicidal action 28 DAT against Brachiaria platyphylla: 80%
  Herbicidal action 28 DAT against Bromus sterilis: 0%
  Herbicidal action 28 DAT against Centaurea cyanus: 30%
  Herbicidal action 28 DAT against Digitaria sanguinalis: 65%
  Herbicidal action 28 DAT against Echinochloa crus-galli: 20%
  Herbicidal action 28 DAT against Eleusine indica: 40%
  Herbicidal action 28 DAT against Euphorbia heterophylla: 10%
  Herbicidal action 28 DAT against Galium aparine: 0%
  Herbicidal action 28 DAT against Hordeum murinum: 10%
  Herbicidal action 28 DAT against Ipomoea purpurea: 15%
  Herbicidal action 28 DAT against Kochia scoparia: 20%
  Herbicidal action 28 DAT against Lamium purpureum L.: 30%
  Herbicidal action 28 DAT against Matricaria inodora: 20%
  Herbicidal action 28 DAT against Pharbitis purpurea: 40%
  Herbicidal action 28 DAT against Polygonum convulvulus: 0%
  Herbicidal action 28 DAT against Raphanus raphanistrum: 0%
  Herbicidal action 28 DAT against Sorghum halepense: 30%
150 g a.i./ha
  Herbicidal action 14 DAT against Alopecurus myosuroides: 60%
  Herbicidal action 14 DAT against Bromus sterilis: 50%
  Herbicidal action 14 DAT against Lamium purpureum L.: 60%
  Herbicidal action 14 DAT against Lolium rigidum (resistant biotype): 30%
  Herbicidal action 14 DAT against Matricaria inodora: 88%
  Herbicidal action 28 DAT against Alopecurus myosuroides: 30%
  Herbicidal action 28 DAT against Alopecurus myosuroides (resistant biotype): 0%
  Herbicidal action 28 DAT against Alopecurus myosuroides (sensitive biotype): 20%
  Herbicidal action 28 DAT against Amaranthus palmeri (res.): 20%
  Herbicidal action 28 DAT against Avena fatua: 20%
  Herbicidal action 28 DAT against Bromus sterilis: 20%
  Herbicidal action 28 DAT against Centaurea cyanus: 70%
  Herbicidal action 28 DAT against Eleusine indica: 80%
  Herbicidal action 28 DAT against Euphorbia heterophylla: 35%
  Herbicidal action 28 DAT against Ipomoea purpurea: 50%
  Herbicidal action 28 DAT against Lamium purpureum: 60%
  Herbicidal action 28 DAT against Lamium purpureum L.: 50%
  Herbicidal action 28 DAT against Lolium rigidum (sensitive biotype): 0%
  Herbicidal action 28 DAT against Matricaria inodora: 75%
  Herbicidal action 28 DAT against Polygonum convolvulus: 0%
  Herbicidal action 28 DAT against Polygonum convulvulus: 10%
  Herbicidal action 28 DAT against Veronica hederifolia: 85%
  Herbicidal action 28 DAT against Viola tricolor: 20%
450 g a.i./ha
  Herbicidal action 14 DAT against Lolium rigidum (resistant biotype): 40%
  Herbicidal action 14 DAT against Viola tricolor: 60%
  Herbicidal action 28 DAT against Amaranthus palmeri (res.): 35%
  Herbicidal action 28 DAT against Bromus sterilis: 60%
  Herbicidal action 28 DAT against Euphorbia heterophylla: 70%
  Herbicidal action 28 DAT against Galium aparine: 50%
  Herbicidal action 28 DAT against Ipomoea purpurea: 65%
  Herbicidal action 28 DAT against Lamium purpureum: 80%
  Herbicidal action 28 DAT against Lamium purpureum L.: 80%
  Herbicidal action 28 DAT against Lolium rigidum: 40%
  Herbicidal action 28 DAT against Lolium rigidum (sensitive biotype): 50%
  Herbicidal action 28 DAT against Matricaria inodora: 80%
  Herbicidal action 28 DAT against Phalaris minor: 60%
  Herbicidal action 28 DAT against Polygonum convolvulus: 0%
  Herbicidal action 28 DAT against Polygonum convulvulus: 40%
  Herbicidal action 28 DAT against Raphanus raphanistrum: 30%
  Herbicidal action 28 DAT against Stellaria media: 85%
  Herbicidal action 28 DAT against Veronica hederifolia: 85%
post-emergence, single active compound (Glyphosate series), g a.i./ha: r765 50, r767 15
  Herbicidal action 28 DAT [%] against Digitaria sanguinalis: 45%
post-emergence, single active compound (Glyphosate series), g a.i./ha: r775 50, r777 15, r778 1.67
  Herbicidal action 28 DAT [%] against Sorghum halepense: 30%
post-emergence, single active compound (Glyphosate series), g a.i./ha: r786 450, r788 1.67
  Herbicidal action 28 DAT [%] against Setaria viridis: 95%
post-emergence, single active compound (Glyphosate series), g a.i./ha: r796 450, r798 5
  Herbicidal action 28 DAT [%] against Abutilon theophrasti: 85%

## C=C[C@]1(C(=O)N[C@@H]2C=C(C(=O)NS(C)(=O)=O)OC2)CC(c2cc(F)cc(F)c2)=NO1 [Compound A4, (5S)-3-(3,5-difluorophenyl)-N-[(3R)-5-(methylsulfonylcarbamoyl)-2,3-dihydrofuran-3-yl]-5-vinyl-4H-isoxazole-5-carboxamide]
1 g a.i./ha
  Herbicidal action 14 DAT against Alopecurus myosuroides: 10%
  Herbicidal action 14 DAT against Bromus sterilis: 20%
  Herbicidal action 14 DAT against Lolium rigidum (resistant biotype): 10%
  Herbicidal action 14 DAT against Matricaria inodora: 40%
  Herbicidal action 14 DAT against Poa annua L.: 20%
  Herbicidal action 14 DAT against Viola tricolor: 30%
  Herbicidal action 28 DAT against Alopecurus myosuroides: 0%
  Herbicidal action 28 DAT against Bromus sterilis: 10%
  Herbicidal action 28 DAT against Lamium purpureum L.: 20%
  Herbicidal action 28 DAT against Matricaria inodora: 10%
  Herbicidal action 28 DAT against Viola tricolor: 0%
4 g a.i./ha
  Herbicidal action 14 DAT against Centaurea cyanus: 30%
  Herbicidal action 14 DAT against Lamium purpureum L.: 30%
  Herbicidal action 14 DAT against Lolium rigidum (resistant biotype): 10%
  Herbicidal action 14 DAT against Matricaria inodora: 30%
  Herbicidal action 14 DAT against Viola tricolor: 30%
  Herbicidal action 28 DAT against Bromus sterilis: 30%
  Herbicidal action 28 DAT against Lolium rigidum: 10%
  Herbicidal action 28 DAT against Lolium rigidum (resistant biotype): 0%
  Herbicidal action 28 DAT against Matricaria inodora: 10%
  Herbicidal action 28 DAT against Phalaris minor: 10%
  Herbicidal action 28 DAT against Viola tricolor: 0%
16 g a.i./ha
  Herbicidal action 14 DAT against Alopecurus myosuroides: 30%
  Herbicidal action 14 DAT against Centaurea cyanus: 40%
  Herbicidal action 14 DAT against Poa annua L.: 40%
  Herbicidal action 28 DAT against Galium aparine: 20%
(Z90) 28 DAT, g a.i./ha: r575 16, r576 270, r577 90, r578 30
  Herbicidal action against Galium aparine: 20%
(Z90) 28 DAT, g a.i./ha: r586 16, r587 30
  Herbicidal action against Lamium purpureum L.: 30%
(Z90) 28 DAT, g a.i./ha: r594 16, r595 30
  Herbicidal action against Lolium rigidum: 10%
(Z90) 28 DAT, g a.i./ha: r602 4, r603 90
  Herbicidal action against Matricaria inodora: 10%
(Z90) 28 DAT, g a.i./ha: r624 4, r625 270
  Herbicidal action against Viola tricolor: 0%
post-emergence, single active compound (A4 series), g a.i./ha: r491 16, r492 50
  Herbicidal action in [%] 28 DAT against Galium aparine: 20%
post-emergence, single active compound (A4 series), g a.i./ha: r501 4, r502 1, r503 450
  Herbicidal action in [%] 14 DAT against Lamium purpureum L.: 30%
post-emergence, single active compound (A4 series), g a.i./ha: r512 4, r513 1, r514 450
  Herbicidal action in [%] 28 DAT against Lamium purpureum L.: 20%
post-emergence, single active compound (A4 series), g a.i./ha: r523 1, r524 450
  Herbicidal action in [%] 28 DAT against Lolium rigidum (resistant bio type): 0%
post-emergence, single active compound (A4 series), g a.i./ha: r533 16, r534 450
  Herbicidal action in [%] 14 DAT against Poa annua L.: 40%
